The species named for assay [1] is Rattus norvegicus. Kind of assay: Antioxidant activity in Wistar albino rat assessed as inhibition of catalase activity. In kind it is functional, organism-based.
The species entered for assay [2] is Rattus norvegicus. Kind of assay: Antioxidant activity in Wistar albino rat assessed as inhibition of superoxide dismutase activity. In kind it is functional, organism-based.
The species named for assay [3] is Rattus norvegicus. Kind of assay: Antioxidant activity in Wistar albino rat assessed as reduced glutathione level. Format: functional.
The species entered for assay [4] is Rattus norvegicus. Kind of assay: Antioxidant activity in Wistar albino rat assessed as lipid peroxidation level. In kind it is functional, organism-based.
For assay [5], the species on record is Rattus norvegicus. Kind of assay: Antioxidant activity in Wistar albino rat assessed as catalase level. In kind it is functional.
Assay [6] is filed under the species Rattus norvegicus. Kind of assay: Antioxidant activity in Wistar albino rat assessed as reduced glutathione activity. In kind it is functional, organism-based.
The species named for assay [7] is Rattus norvegicus. Kind of assay: Antioxidant activity in Wistar albino rat assessed as superoxide dismutase level. In kind it is functional.
Assay [8] is filed under the species Rattus norvegicus. Kind of assay: Antioxidant activity in Wistar albino rat assessed as inhibition of lipid peroxidation. Format: functional, organism-based.
The mark [9] stands for this setting: Rattus norvegicus, Wistar albino, read-out: EC50.

Converted amounts (≈) assume the structure as drawn. The source made the active and inactive calls. No cut-off for these calls is given here.

By EC50 is commonly meant the concentration giving half of the maximal effect. For the compound `O=C1O[C@H]([C@@H](O)CO)C(O)=C1O` [ASCORBIC ACID], the EC50 in the assay listed under Rattus norvegicus [1] (setting [9]) stood at 1.37 µg/mL (≈ 7.78 µM); in the assay listed under Rattus norvegicus [2] (setting [9]) it was 0.99 µg/mL (≈ 5.62 µM); in the assay filed under Rattus norvegicus [6] (setting [9]) it was 0.98 µg/mL (≈ 5.56 µM); in the assay filed under Rattus norvegicus [8] (setting [9]) it was 1.02 µg/mL (≈ 5.79 µM). For the same compound, the Activity in the assay filed under Rattus norvegicus [3] was found to be 31.34 µg/mL; in the assay listed under Rattus norvegicus [4], 88.1 µg/mL; in the assay filed under Rattus norvegicus [5], 385.46 µg/mL. Besides, the result in the assay filed under Rattus norvegicus [7] was inactive.
For the compound VITAMIN E [listing 1 of 2 here], the Activity in the assay filed under Rattus norvegicus [3] came to 43.6 µg/mL; in the assay filed under Rattus norvegicus [4], 82.8 µg/mL; in the assay filed under Rattus norvegicus [5], 403 µg/mL; in the assay filed under Rattus norvegicus [7], 32.3 µg/mL.
As to `CCCC(NP1(=S)Oc2ccccc2CN1c1ccc(N2Cc3ccccc3OP2(=S)NC(CCC)C(=O)OCC)cc1)C(=O)OCC` (centres undefined), the EC50 stood at 3.23 µg/mL (≈ 4.42 µM) in the assay filed under Rattus norvegicus [1] (setting [9]), 2.33 µg/mL (≈ 3.19 µM) in the assay listed under Rattus norvegicus [2] (setting [9]), 2.5 µg/mL (≈ 3.42 µM) in the assay listed under Rattus norvegicus [6] (setting [9]) and 2.59 µg/mL (≈ 3.54 µM) in the assay listed under Rattus norvegicus [8] (setting [9]). Also, the Activity in the assay filed under Rattus norvegicus [3] was determined as 4.23 µg/mL; in the assay filed under Rattus norvegicus [4] it was 70.2 µg/mL; in the assay listed under Rattus norvegicus [5] it was 273.32 µg/mL; in the assay filed under Rattus norvegicus [7], 28.55 µg/mL.
With `COC(=O)C(Cc1c[nH]cn1)NP1(=S)Oc2ccccc2CN1c1ccc(N2Cc3ccccc3OP2(=S)NC(Cc2c[nH]cn2)C(=O)OC)cc1` (centres undefined), the EC50 in the assay listed under Rattus norvegicus [1] (setting [9]) amounted to 1.75 µg/mL (≈ 2.25 µM); in the assay filed under Rattus norvegicus [2] (setting [9]), 1.4 µg/mL (≈ 1.8 µM); in the assay filed under Rattus norvegicus [6] (setting [9]), 1.45 µg/mL (≈ 1.86 µM); in the assay filed under Rattus norvegicus [8] (setting [9]), 1.56 µg/mL (≈ 2 µM). Besides, the Activity in the assay listed under Rattus norvegicus [3] worked out at 3.66 µg/mL; in the assay filed under Rattus norvegicus [4], 77.2 µg/mL; in the assay listed under Rattus norvegicus [5] it was 282.28 µg/mL; in the assay filed under Rattus norvegicus [7] it was 31.55 µg/mL.
For the compound `CCCC(NP1(=S)Oc2ccccc2CN1c1ccc(N2Cc3ccccc3OP2(=S)NC(CCC)C(=O)OC)cc1)C(=O)OC` (centres undefined), the EC50 in the assay filed under Rattus norvegicus [1] (setting [9]) was 3.98 µg/mL (≈ 5.66 µM); in the assay filed under Rattus norvegicus [2] (setting [9]), 2.31 µg/mL (≈ 3.29 µM); in the assay listed under Rattus norvegicus [6] (setting [9]), 2.66 µg/mL (≈ 3.78 µM); in the assay filed under Rattus norvegicus [8] (setting [9]) it was 2.91 µg/mL (≈ 4.14 µM). For the same compound, the Activity in the assay filed under Rattus norvegicus [3] came out at 5.02 µg/mL; in the assay listed under Rattus norvegicus [4] it was 68.2 µg/mL; in the assay filed under Rattus norvegicus [5] it was 265.43 µg/mL; in the assay filed under Rattus norvegicus [7], 27.8 µg/mL.
For `CCOC(=O)C(NP1(=S)Oc2ccccc2CN1c1ccc(N2Cc3ccccc3OP2(=S)NC(C(=O)OCC)c2ccccc2)cc1)c1ccccc1` (centres undefined), the EC50 came out at 2.98 µg/mL (≈ 3.73 µM) in the assay filed under Rattus norvegicus [1] (setting [9]), 2.42 µg/mL (≈ 3.03 µM) in the assay listed under Rattus norvegicus [2] (setting [9]), 2.15 µg/mL (≈ 2.69 µM) in the assay listed under Rattus norvegicus [6] (setting [9]) and 2.57 µg/mL (≈ 3.22 µM) in the assay filed under Rattus norvegicus [8] (setting [9]). Besides, the Activity was determined as 4.12 µg/mL in the assay listed under Rattus norvegicus [3], 70.5 µg/mL in the assay filed under Rattus norvegicus [4], 270.32 µg/mL in the assay listed under Rattus norvegicus [5] and 29.31 µg/mL in the assay filed under Rattus norvegicus [7].
`CCOC(=O)C(C)NP1(=S)Oc2ccccc2CN1c1ccc(N2Cc3ccccc3OP2(=S)NC(C)C(=O)OCC)cc1` (centres undefined): the EC50 stood at 3.38 µg/mL (≈ 5.01 µM) in the assay filed under Rattus norvegicus [1] (setting [9]), 2.98 µg/mL (≈ 4.42 µM) in the assay listed under Rattus norvegicus [2] (setting [9]), 2.68 µg/mL (≈ 3.97 µM) in the assay filed under Rattus norvegicus [6] (setting [9]) and 3.1 µg/mL (≈ 4.59 µM) in the assay listed under Rattus norvegicus [8] (setting [9]). In addition, the Activity was found to be 4.56 µg/mL in the assay listed under Rattus norvegicus [3], 68.9 µg/mL in the assay filed under Rattus norvegicus [4], 270.32 µg/mL in the assay filed under Rattus norvegicus [5] and 28.14 µg/mL in the assay filed under Rattus norvegicus [7].
In the case of `Oc1ccccc1CNc1ccc(NCc2ccccc2O)cc1`, the EC50 was 6.05 µg/mL (≈ 18.9 µM) in the assay filed under Rattus norvegicus [1] (setting [9]), 4.58 µg/mL (≈ 14.3 µM) in the assay listed under Rattus norvegicus [2] (setting [9]), 5.42 µg/mL (≈ 16.9 µM) in the assay listed under Rattus norvegicus [6] (setting [9]) and 5.02 µg/mL (≈ 15.7 µM) in the assay listed under Rattus norvegicus [8] (setting [9]). Besides, the Activity in the assay filed under Rattus norvegicus [3] was 4.8 µg/mL; in the assay filed under Rattus norvegicus [4] it was 70.7 µg/mL; in the assay filed under Rattus norvegicus [5] it was 262.55 µg/mL; in the assay filed under Rattus norvegicus [7], 26.27 µg/mL.
For the compound `CCOC(=O)C1c2ccccc2CN1P1(=S)Oc2ccccc2CN1c1ccc(N2Cc3ccccc3OP2(=S)N2Cc3ccccc3C2C(=O)OCC)cc1` (centres undefined), the EC50 in the assay filed under Rattus norvegicus [1] (setting [9]) was 1.68 µg/mL (≈ 2.04 µM); in the assay filed under Rattus norvegicus [2] (setting [9]), 1.55 µg/mL (≈ 1.88 µM); in the assay listed under Rattus norvegicus [6] (setting [9]) it was 1.49 µg/mL (≈ 1.81 µM); in the assay listed under Rattus norvegicus [8] (setting [9]), 1.56 µg/mL (≈ 1.9 µM). The Activity in the assay filed under Rattus norvegicus [3] is 5.77 µg/mL; in the assay filed under Rattus norvegicus [4] it was 75.7 µg/mL; in the assay listed under Rattus norvegicus [5], 285.58 µg/mL; in the assay listed under Rattus norvegicus [7], 30.59 µg/mL.
For `COC(=O)C(Cc1ccccc1)NP1(=S)Oc2ccccc2CN1c1ccc(N2Cc3ccccc3OP2(=S)NC(Cc2ccccc2)C(=O)OC)cc1` (centres undefined), the EC50 in the assay filed under Rattus norvegicus [1] (setting [9]) was determined as 2.2 µg/mL (≈ 2.75 µM); in the assay filed under Rattus norvegicus [2] (setting [9]), 1.98 µg/mL (≈ 2.48 µM); in the assay listed under Rattus norvegicus [6] (setting [9]), 2.05 µg/mL (≈ 2.57 µM); in the assay filed under Rattus norvegicus [8] (setting [9]) it was 2.1 µg/mL (≈ 2.63 µM). The Activity came out at 4.21 µg/mL in the assay filed under Rattus norvegicus [3], 72.9 µg/mL in the assay filed under Rattus norvegicus [4], 279.43 µg/mL in the assay filed under Rattus norvegicus [5] and 29.42 µg/mL in the assay listed under Rattus norvegicus [7].
`COC(=O)C(NP1(=S)Oc2ccccc2CN1c1ccc(N2Cc3ccccc3OP2(=S)NC(C(=O)OC)C(C)C)cc1)C(C)C` (centres undefined): the EC50 in the assay filed under Rattus norvegicus [1] (setting [9]) came to 4.89 µg/mL (≈ 6.96 µM); in the assay listed under Rattus norvegicus [2] (setting [9]) it was 3.45 µg/mL (≈ 4.91 µM); in the assay listed under Rattus norvegicus [6] (setting [9]) it was 3.05 µg/mL (≈ 4.34 µM); in the assay listed under Rattus norvegicus [8] (setting [9]), 4.1 µg/mL (≈ 5.83 µM). The Activity came out at 4.73 µg/mL in the assay filed under Rattus norvegicus [3], 72.3 µg/mL in the assay filed under Rattus norvegicus [4], 277.59 µg/mL in the assay listed under Rattus norvegicus [5] and 27.86 µg/mL in the assay filed under Rattus norvegicus [7].
VITAMIN E [listing 2 of 2 here]: the EC50 was 1.48 µg/mL in the assay filed under Rattus norvegicus [1], 1.03 µg/mL in the assay filed under Rattus norvegicus [2], 0.99 µg/mL in the assay filed under Rattus norvegicus [6] and 1.22 µg/mL in the assay filed under Rattus norvegicus [8].
In the case of `COC(=O)C(Cc1c[nH]c2ccccc12)NP1(=S)Oc2ccccc2CN1c1ccc(N2Cc3ccccc3OP2(=S)NC(Cc2c[nH]c3ccccc23)C(=O)OC)cc1` (centres undefined), the concentration giving a half-maximal response (EC50) in the assay listed under Rattus norvegicus [1] (setting [9]) worked out at 1.98 µg/mL (≈ 2.26 µM); in the assay filed under Rattus norvegicus [2] (setting [9]), 1.39 µg/mL (≈ 1.59 µM); in the assay filed under Rattus norvegicus [6] (setting [9]) it was 1.45 µg/mL (≈ 1.65 µM); in the assay listed under Rattus norvegicus [8] (setting [9]), 1.82 µg/mL (≈ 2.08 µM). The Activity in the assay filed under Rattus norvegicus [3] was determined as 5.84 µg/mL; in the assay listed under Rattus norvegicus [4], 76.2 µg/mL; in the assay filed under Rattus norvegicus [5], 280.48 µg/mL; in the assay listed under Rattus norvegicus [7] it was 30.29 µg/mL.
In the case of `COC(=O)C(C)NP1(=S)Oc2ccccc2CN1c1ccc(N2Cc3ccccc3OP2(=S)NC(C)C(=O)OC)cc1` (centres undefined), the EC50 in the assay filed under Rattus norvegicus [1] (setting [9]) worked out at 5.28 µg/mL (≈ 8.16 µM); in the assay filed under Rattus norvegicus [2] (setting [9]), 3.56 µg/mL (≈ 5.51 µM); in the assay listed under Rattus norvegicus [6] (setting [9]), 3.5 µg/mL (≈ 5.41 µM); in the assay listed under Rattus norvegicus [8] (setting [9]), 4.25 µg/mL (≈ 6.57 µM). Besides, the Activity in the assay filed under Rattus norvegicus [3] is 3.56 µg/mL; in the assay listed under Rattus norvegicus [4], 72.2 µg/mL; in the assay listed under Rattus norvegicus [5], 271.27 µg/mL; in the assay filed under Rattus norvegicus [7], 27.02 µg/mL.
